Measured values taken from PubChem BioAssay (NCI).
Several values for one entry are separate records, joined by “and”; a condition that tells them apart may be missing. Identical values can stand only once.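 Tested at 5 concentrations; 48 h exposure; 96-well plates; endpoints linearly interpolated, else capped at highest concentration. Here, GI50 denotes the concentration required for 50% inhibition of growth. TGI: concentration producing complete growth inhibition.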

How the values were obtained:
Assay in all cases: NCI tumour cell line growth inhibition, 48 h
[1] = tested on: MDA-N
[2] = tested on: LXFL 529 NSCLC
[3] = tested on: M19-MEL melanoma
[4] = tested on: RXF-631 renal
[5] = tested on: SNB-78 CNS
[6] = tested on: DLD-1 colon
[7] = tested on: KM20L2 colon
[8] = tested on: HOP-18 NSCLC
[9] = tested on: XF 498 CNS
[10] = tested on: SN12K1 renal
[11] = tested on: P388 leukemia
[12] = tested on: P388/ADR leukemia

Row | Compound | TGI [2] [µM] | TGI [3] [µM] | TGI [4] [µM] | TGI [5] [µM] | TGI [6] [µM] | TGI [7] [µM] | TGI [8] [µM] | TGI [9] [µM] | also measured
1 | O=C(/C=C/c1ccccc1)c1ccccn1 |  |  |  |  |  |  |  |  | TGI [1]: 30.5 µM and 67.4 µM
2 | C/C(=N\NC(N)=S)c1ccc(Oc2ccccc2)cc1 | 17.5 | 47.2 | 43.7 | 47.7 | 16.9 | 26.5 | 80 |  | 
3 | CC[C@H]1CNC(=O)CC1CC(=O)OC (stereo partly drawn) |  |  | > 100 | > 100 | > 100 |  |  |  | 
4 | CS(=O)c1cc(=O)c2ccccc2s1 (stereo not drawn) | 2.9 | 11.9 |  | 27.6 | 5.6 | 13.4 | 19.7 | 7.57 | TGI [1]: 7.13 µM; TGI [10]: 32.8 µM; TGI [11]: 6.79 µM; TGI [12]: > 22.2 µM
5 | O=P(c1ccccc1)(c1ccccc1)C1CC=C2CCCCCC2C1 (stereo not drawn) | 46.2 | > 100 | 85.4 | > 100 |  | > 10 | 44.2 | 91.6 | 
6 | c1c[nH]c(CN2CCN(Cc3ncc[nH]3)CC2)n1 |  |  |  |  |  |  |  |  | TGI [1]: > 100 µM
7 | O=C(c1ccccc1)N1CCc2c([nH]c3ccccc23)C1 | > 100 | > 100 | > 100 |  | > 100 | > 100 | > 100 | 55 | 
8 | O=C1N(c2ccccc2)C2(O)C(=O)c3ccccc3C2(O)N1c1ccccc1 (stereo not drawn) | > 100 | > 100 |  | > 100 | > 100 | > 100 | > 100 |  | 
9 | COc1cc(Br)c(C2OCCCO2)cc1OCc1ccccc1 | > 100 | > 100 | > 100 | > 100 | > 100 | > 100 |  |  | 
10 | CCOc1ccc(/C=C/C(=O)c2sc(NNC(C)=O)nc2C)cc1 |  | > 100 |  | > 100 | > 100 | > 100 | > 100 |  | 
11 | CC(C)CC(=O)O[C@H]1C(=O)O[C@@H]2C[C@H]3[C@H](C)C(=O)C(O[C@@H]4O[C@H](CO)[C@@H](O)[C@H](O)[C@H]4O)=C[C@]3(C)[C@H]3[C@@H](O)[C@H](O)[C@]4(C(=O)O)OC[C@]32[C@@H]14 |  |  |  |  |  |  |  |  | TGI [1]: > 100 µM
12 | O=C(N=Nc1c(O)[nH]c2c(Cl)cc(Cl)cc12)C(=O)Nc1cccc(C(F)(F)F)c1 |  |  |  |  |  |  |  |  | TGI [1]: > 100 µM
13 | O=C(CC1(O)C(=O)Nc2ccc(Br)cc21)c1cccc([N+](=O)[O-])c1 (stereo not drawn) | > 100 |  | > 100 | > 100 | > 100 | > 100 | > 100 |  | 
14 | CCc1cccc(CC)c1NC1=CC(=O)C(=O)c2ccccc21 | 48.8 | 17.2 | > 100 | 80.6 | 49.7 | 48.9 | 62.9 |  | 
15 | Cc1cc(Br)ccc1N=NC1C(=O)ON=C1c1ccccc1 (stereo not drawn) | > 100 | > 100 | > 100 | > 100 | > 100 | > 100 | > 100 |  | 
16 | C/C=C/C(C/C=C(\C)CO[Si](C)(C)C(C)(C)C)O[Si](C)(C)C(C)(C)C (stereo not drawn) |  |  |  |  |  |  |  |  | TGI [1]: > 100 µM
17 | CC(=O)Nc1ccc(/C=C/C(=O)c2sc(-n3nc(-c4ccccc4)cc3-c3ccccc3)nc2C)cc1 | > 100 | > 100 | > 100 |  | > 100 | > 100 |  |  | GI50 [2]: > 100 µM; GI50 [3]: > 100 µM; GI50 [4]: > 100 µM; GI50 [6]: > 100 µM; GI50 [7]: > 100 µM

Row | Compound | TGI [2] [µM] | TGI [3] [µM] | TGI [4] [µM] | TGI [5] [µM] | TGI [6] [µM] | TGI [7] [µM] | TGI [8] [µM] | TGI [9] [µM] | also measured
18 | BrC(/C=N/Nc1nnc(-c2ccccc2)c(-c2ccccc2)n1)C(Br)c1ccccc1 (stereo not drawn) |  | > 100 | > 100 | 78.1 | > 100 | > 100 |  | 82.7 | 
19 | O=c1ccn([C@@H]2C[C@H](CO)CS(=O)C2)c(=O)[nH]1 (stereo partly drawn) | > 100 | > 100 |  |  | > 100 | > 100 | > 100 |  | 
20 | CC(=O)[O-].O=C([CH-]C(=O)c1ccccc1)c1ccccc1.O=C([CH-]C(=O)c1ccccc1)c1ccccc1.[Dy+3] |  |  |  |  |  | 44.7 |  |  | GI50 [7]: 12.9 µM
21 | N#CC1(C2CC(=O)N(c3ccccc3)C2=O)CCCCC1=O (stereo not drawn) | > 100 | > 100 | > 100 | > 100 | > 100 |  | > 100 | > 100 | 
22 | O=C(Nc1cc(Cl)ccc1Cl)c1cc2ccccc2oc1=O |  | > 100 |  |  | > 100 | > 100 | 83 |  | 
23 | N#Cc1cccc(C2SCc3nc4ccccc4n32)c1 (stereo not drawn) | > 100 |  | > 100 | > 100 | > 100 | > 100 |  | > 100 | 
24 | CCN(CC)CCN1C(=O)c2cccc3cc(N)cc(c23)C1=O |  |  |  |  |  |  |  |  | TGI [1]: 23.8 µM
25 | O=C(/C=C/c1c[nH]c2ccccc12)c1ccccc1O |  |  |  |  |  |  |  |  | TGI [1]: 17.5 µM
26 | CC(=O)O[C@@H]1[C@H]2O[C@H]2[C@H]2O[C@@]2(COC(=O)c2ccccc2)[C@H]1OC(C)=O |  |  |  |  |  |  |  |  | TGI [1]: > 100 µM
27 | O=C(NC(=Nc1ccccc1)SCCSC(=Nc1ccccc1)NC(=O)c1ccccc1)c1ccccc1 | > 100 | > 100 |  | > 100 | > 100 | > 100 |  | > 100 | 
28 | Cc1nc2ccccc2c(=O)n1/N=C(\N=Nc1ccc(Cl)cc1)c1ccc(N(C)C)cc1 | > 100 | > 100 |  |  | > 100 | > 100 | > 100 | 96.3 | 
29 | CC1(C)OC2OC(/C=C/[N+](=O)[O-])C3OC(C)(C)OC3C2O1 (stereo not drawn) | 10.1 | 27.7 |  | 44 | 4.05 | 39.6 | 40.8 |  | 
30 | O=C1C(=C2C(=O)c3ccccc3[N+]2=O)N([O-])c2ccccc21 | 43.5 | 68.4 |  | > 100 | 88.6 |  | 71.5 |  | 
31 | C=CC(C)(C)[C@@]12CC3C(=O)N[C@@H](Cc4ccccc4)C(=O)N3[C@@H]1N(C(C)=O)c1ccccc12 (stereo partly drawn) | > 100 | > 100 | > 100 | > 100 | > 100 | > 100 | > 100 | > 100 | 
32 | Cc1c(Cl)ccc2[s+]snc12 | 92 | > 100 | > 100 | > 100 | 62 | > 100 | 95.2 | 55.2 | 
33 | CC(=O)NNc1nc(C)c(C(=O)NNC(=O)C(=O)Nc2ccc(C)cc2[N+](=O)[O-])s1 | > 100 | > 100 | > 100 | > 100 | > 100 | > 100 | > 100 |  | 
34 | COc1cc(CC2c3cc(OC)c(OC)cc3CCN2C)c(C(=O)O)cc1OC (stereo not drawn) | > 100 | > 100 |  | > 100 | > 100 | > 100 | > 100 | > 100 | 
